{"source": "patent US11377441B2", "about": "“Covalent inhibitors of KRAS” (Araxes Pharma LLC, priority 2017, dated 2022)"}
{"molecular_target": "T1, KRAS G12C 1-169, his-tagged protein, GDP-loaded (Homo sapiens, UniProt P01116, G12C)", "T1 construct": "KRAS G12C 1-169, his-tagged protein, GDP-loaded", "assay": "Biochemical assay: covalent modification of KRAS G12C measured by mass spectrometry (RapidFire/TOF or Q-Exactive)", "type": "binding", "conditions": "covalent binding to (modification of) KRAS G12C after a ten minute incubation period", "outline": "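GDP-loaded KRAS G12C 1-169 (his-tagged) at 2 μM or 0.5 μM in 20 mM Hepes, 150 mM NaCl, 1 mM MgCl2, incubated with compound at 100, 30 or 10 μM at room temperature for 10 min, 30 min, 2 h or 24 h, then quenched with formic acid. Intact-protein LC-MS, deconvolved; percent modification from modified versus unmodified protein.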"}
{"smiles": "C=CC(=O)N1C[C@H](C)N(c2nc(OCCN3CCC(F)(F)C3)nc3c(F)c(-c4c(C)ccc5cnn(C)c45)c(Cl)cc23)C[C@H]1C", "note": "(atropisomer, axis not shown) [Compound 136, 1-((2R,5S)-4-((R)-6-chloro-2-(2-(3,3-difluoropyrrolidin-1-yl)ethoxy)-7-(1,6-dimethyl-1H-indazol-7-yl)-8-fluoroquinazolin-4-yl)-2,5-dimethylpiperazin-1-yl)prop-2-en-1-one]", "Binding %": "+++ (+++ indicates binding activity greater than 80%)"}
{"smiles": "C=CC(=O)N1C[C@H](C)N(c2nc(N3CC(N(C)C)C3)nc3c(F)c(-c4c(C)ccc5[nH]nc(C(F)(F)F)c45)c(Cl)cc23)C[C@H]1C", "note": "[Compound 115, 1-((2R,5S)-4-(6-chloro-2-(3-(dimethylamino)azetidin-1-yl)-8-fluoro-7-(5-methyl-3-(trifluoromethyl)-1H-indazol-4-yl)quinazolin-4-yl)-2,5-dimethylpiperazin-1-yl)prop-2-en-1-one]", "Binding %": "+ (+ indicates binding activity greater than 0% and up to 50%)"}
{"smiles": "C=CC(=O)N1C[C@H](C)N(c2nc(NCCN3CCOCC3)nc3c(F)c(-c4c(C)ccc5onc(N)c45)c(Cl)cc23)C[C@H]1C", "note": "[Compound 92, 1-((2R,5S)-4-(7-(3-amino-5-methylbenzo[d]isoxazol-4-yl)-6-chloro-8-fluoro-2-(2-morpholinoethylamino)quinazolin-4-yl)-2,5-dimethylpiperazin-1-yl)prop-2-en-1-one]", "Binding %": "++ (++ indicates binding activity from 50 to 80%)"}
{"smiles": "C=CC(=O)N1C[C@H](C)N(c2nc(OCCN3CC(F)(F)C3)nc3c(F)c(-c4c(C)ccc5[nH]nc(N)c45)c(Cl)cc23)C[C@H]1C", "note": "(atropisomer, axis not shown) [Compound 83, 1-((2R,5S)-4-((S)-7-(3-amino-5-methyl-1H-indazol-4-yl)-6-chloro-2-(2-(3,3-difluoroazetidin-1-yl)ethoxy)-8-fluoroquinazolin-4-yl)-2,5-dimethylpiperazin-1-yl)prop-2-en-1-one]", "Binding %": "+ (+ indicates binding activity greater than 0% and up to 50%)"}
{"smiles": "C=CC(=O)N1C[C@H](C)N(c2nc(N3CC(N(C)C)C3)nc3c(F)c(-c4c(F)ccc5cnn(C6CC6)c45)c(Cl)cc23)C[C@H]1C", "note": "(atropisomer, axis not shown) [Compound 201, 1-((2R,5S)-4-((S)-6-chloro-7-(1-cyclopropyl-6-fluoro-1H-indazol-7-yl)-2-(3-(dimethylamino)azetidin-1-yl)-8-fluoroquinazolin-4-yl)-2,5-dimethylpiperazin-1-yl)prop-2-en-1-one]", "Binding %": "+++ (+++ indicates binding activity greater than 80%)"}
{"smiles": "C=CC(=O)N1C[C@H](C)N(c2nc(N3CC(N(C)C)C3)nc3c(F)c(-c4c(C)ccc5onc(N)c45)c(Cl)cc23)C[C@H]1C", "note": "[Compound 95, 1-((2R,5S)-4-((R)-7-(3-amino-5-methylbenzo[d]isoxazol-4-yl)-6-chloro-2-(3-(dimethylamino)azetidin-1-yl)-8-fluoroquinazolin-4-yl)-2,5-dimethylpiperazin-1-yl)prop-2-en-1-one]", "Binding %": "+++ (+++ indicates binding activity greater than 80%)"}
{"smiles": "C=CC(=O)N1C[C@H](C)N(c2nc(OCCN3CCN(C)CC3)nc3c(F)c(-c4c(C)ccc5cnn(C)c45)c(Cl)cc23)C[C@H]1C", "note": "(atropisomer, axis not shown) [Compound 168, 1-((2R,5S)-4-((S)-6-chloro-7-(1,6-dimethyl-1H-indazol-7-yl)-8-fluoro-2-(2-(4-methylpiperazin-1-yl)ethoxy)quinazolin-4-yl)-2,5-dimethylpiperazin-1-yl)prop-2-en-1-one]", "Binding %": "+ (+ indicates binding activity greater than 0% and up to 50%)"}
{"smiles": "C=CC(=O)N1C[C@H](C)N(c2nc(OCCN3CCOCC3)nc3c(F)c(-c4c(C)ccc5onc(N)c45)c(Cl)cc23)C[C@H]1C", "note": "[Compound 81, 1-((2R,5S)-4-(7-(3-amino-5-methylbenzo[d]isoxazol-4-yl)-6-chloro-8-fluoro-2-(2-morpholinoethoxy)quina-zolin-4-yl)-2,5-dimethylpiperazin-1-yl)prop-2-en-1-one]", "Binding %": "++ (++ indicates binding activity from 50 to 80%)"}
{"smiles": "C=CC(=O)N1C[C@H](C)N(c2nc(N3CC(N(C)C)C3)nc3c(F)c(-c4ccc(F)c5cnn(C6CC6)c45)c(Cl)cc23)C[C@H]1C", "note": "(atropisomer, axis not shown) [Compound 218, 1-((2R,5S)-4-((R)-6-chloro-7-(1-cyclopropyl-4-fluoro-1H-indazol-7-yl)-2-(3-(dimethylamino)azetidin-1-yl)-8-fluoroquinazolin-4-yl)-2,5-dimethylpiperazin-1-yl)prop-2-en-1-one]", "Binding %": "+++ (+++ indicates binding activity greater than 80%)"}
{"smiles": "C=CC(=O)N1C[C@H](C)N(c2nc(OCCN3CCCC3)nc3c(F)c(-c4c(C)ccc5[nH]nc(N)c45)c(Cl)cc23)C[C@H]1C", "note": "[Compound 49, 1-((2R,5S)-4-(7-(3-amino-5-methyl-1H-indazol-4-yl)-6-chloro-8-fluoro-2-(2-(pyrrolidin-1-yl)ethoxy)quinazolin-4-yl)-2,5-dimethylpiperazin-1-yl)prop-2-en-1-one]", "Binding %": "+++ (+++ indicates binding activity greater than 80%)"}
{"smiles": "C=CC(=O)N1C[C@H](C)N(c2nc(N3CC(N(C)C)C3)nc3c(F)c(-c4c(C)ccc5cnn(C)c45)c(Cl)cc23)C[C@H]1C", "note": "(atropisomer, axis not shown) [Compound 131, 1-((2R,5S)-4-((S)-6-chloro-7-(1,6-dimethyl-1H-indazol-7-yl)-2-(3-(dimethylamino)azetidin-1-yl)-8-fluoroquinazolin-4-yl)-2,5-dimethylpiperazin-1-yl)prop-2-en-1-one]", "Binding %": "+ (+ indicates binding activity greater than 0% and up to 50%)"}
{"smiles": "[2H]C([2H])([2H])N(C1CN(c2nc(N3C[C@@H](C)N(C(=O)C=C)C[C@@H]3C)c3cc(Cl)c(-c4c(C)ccc5cnn(C)c45)c(F)c3n2)C1)C([2H])([2H])[2H]", "note": "(atropisomer, axis not shown) [Compound 211, 1-((2R,5S)-4-((S)-6-chloro-7-(1,6-dimethyl-1H-indazol-7-yl)-2-(3-(di-perdeuteromethylamino)azetidin-1-yl)-8-fluoroquinazolin-4-yl)-2,5-dimethylpiperazin-1-yl)prop-2-en-1-one]", "Binding %": "+ (+ indicates binding activity greater than 0% and up to 50%)"}
{"smiles": "C=CC(=O)N1C[C@H](C)N(c2nc(OC[C@@H]3CCN(C)C3)nc3c(F)c(-c4c(C)ccc5[nH]nc(C)c45)c(Cl)cc23)C[C@H]1C", "note": "[Compound 175, 1-((2R,5S)-4-(6-chloro-7-(3,5-dimethyl-1H-indazol-4-yl)-8-fluoro-2-(((R)-1-methylpyrrolidin-3-yl)methoxy)quinazolin-4-yl)-2,5-dimethylpiperazin-1-yl)prop-2-en-1-one]", "Binding %": "++ (++ indicates binding activity from 50 to 80%)"}
{"smiles": "C=CC(=O)N1C[C@H](C)N(c2nc(NCCC(=O)N(C)C)nc3c(F)c(-c4c(C)ccc5onc(N)c45)c(Cl)cc23)C[C@H]1C", "note": "[Compound 64, 3-(4-((2S,5R)-4-acryloyl-2,5-dimethylpiperazin-1-yl)-7-(3-amino-5-methylbenzo[d]isoxa-zol-4-yl)-6-chloro-8-fluoroquinazolin-2-ylamino)-N,N-dimethylpropanamide]", "Binding %": "++ (++ indicates binding activity from 50 to 80%)"}
{"smiles": "C=CC(=O)N1C[C@H](C)N(c2nc(N3CC(N(C)C)C3)nc3c(F)c(-c4ccc(F)c5cnn(C6CC6)c45)c(Cl)cc23)C[C@H]1C", "note": "(atropisomer, axis not shown) [Compound 217, 1-((2R,5S)-4-((S)-6-chloro-7-(1-cyclopropyl-4-fluoro-1H-indazol-7-yl)-2-(3-(dimethylamino)azetidin-1-yl)-8-fluoroquinazolin-4-yl)-2,5-dimethylpiperazin-1-yl)prop-2-en-1-one]", "Binding %": "+ (+ indicates binding activity greater than 0% and up to 50%)"}
{"smiles": "C=CC(=O)N1C[C@H](C)N(c2nc(OC[C@H]3CCCN3C)nc3c(F)c(-c4c(C)ccc5cnn(C)c45)c(Cl)cc23)C[C@H]1C", "note": "(atropisomer, axis not shown) [Compound 236, 1-((2R,5S)-4-((R)-6-chloro-7-(1,6-dimethyl-1H-indazol-7-yl)-8-fluoro-2-(((R)-1-methylpyrrolidin-2-yl)methoxy)quinazolin-4-yl)-2,5-dimethylpiperazin-1-yl)prop-2-en-1-one]", "Binding %": "+ (+ indicates binding activity greater than 0% and up to 50%)"}
{"smiles": "C=CC(=O)N1C[C@H](C)N(c2nc(N3CC(N(C)C)C3)nc3c(F)c(-c4cccc5[nH]nc(N)c45)c(Cl)cc23)C[C@H]1C", "note": "[Compound 2, 1-((2R,5S)-4-(7-(3-amino-1H-indazol-4-yl)-6-chloro-2-(3-(dimethylamino)azetidin-1-yl)-8-fluoroquinazolin-4-yl)-2,5-dimethylpiperazin-1-yl)prop-2-en-1-one]", "Binding %": "++ (++ indicates binding activity from 50 to 80%)"}
{"smiles": "C=CC(=O)N1C[C@H](C)N(c2nc(OCCN3CCC(F)(F)C3)nc3c(F)c(-c4c(C)ccc5[nH]nc(N)c45)c(Cl)cc23)C[C@H]1C", "note": "(atropisomer, axis not shown) [Compound 66, 1-((2R,5S)-4-((S)-7-(3-amino-5-methyl-1H-indazol-4-yl)-6-chloro-2-(2-(3,3-difluoropyrrolidin-1-yl)ethoxy)-8-fluoroquinazolin-4-yl)-2,5-dimethylpiperazin-1-y)prop-2-en-1-one]", "Binding %": "+ (+ indicates binding activity greater than 0% and up to 50%)"}
{"smiles": "C=CC(=O)N1C[C@H](C)N(c2nc(OCCN3CCC(F)CC3)nc3c(F)c(-c4c(C)ccc5[nH]nc(C)c45)c(Cl)cc23)C[C@H]1C", "note": "[Compound 163, 1-((2R,5S)-4-((S)-6-chloro-7-(3,5-dimethyl-1H-indazol-4-yl)-8-fluoro-2-(2-(4-fluoropiperidin-1-yl)ethoxy)quinazolin-4-yl)-2,5-dimethylpiperazin-1-yl)prop-2-en-1-one]", "Binding %": "+ (+ indicates binding activity greater than 0% and up to 50%)"}
